The results in this text go back to patent US10703748B2, “Diazanaphthalen-3-yl carboxamides and preparation and use thereof” (Samumed, LLC, priority 2017, dated 2020).

The test system of assay [1] is Tau phosphorylation at Ser396 (pSer396). Nature of the assay: Tau phosphorylation at Ser396 (pSer396) in SH-SY5Y cells, ELISA / western blot.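 Further: decrease in pSer396 Tau measured in lysates of treated cells by colorimetric ELISA or chemiluminescent western blot, same pSer396 antibody for both.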 It counts as cell-based, human. As to conditions: Homo sapiens.
Description: Two days before treatment, cells were seeded onto 96 well plates at 5×10^4 cells/well.
The above synthesized compounds were screened using the cell assay procedure to assess decrease Tau phosphorylation at Ser396 (pSer396) described below.
Cells were lysed with RIPA buffer complemented with phosphatase and protease inhibitors then lysates were spun down at 12,000 g for 10 min to remove any cellular debris.
For assay [2], the system named is IL-6. In words: IL-6 inhibition in LPS-stimulated human peripheral blood mononuclear cells (HTRF). The settings on record: Homo sapiens, PBMC; for EC50: 22 h; for inhibition at 10 µM: read-out: percentage in parentheses after EC50 >10.
Assay [3] deals with DYRK1A kinase (Homo sapiens, UniProt Q13627). In words: DYRK1A kinase activity (Ser/Thr 18 peptide Z-lyte FRET assay).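 Further: kinase activity read as coumarin/fluorescein emission ratio after development step, with unphosphorylated and phosphorylated peptide forms setting 0% and 100% controls, values from dose-response curves.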 It counts as biochemical. The settings on record: recombinant DYRK1A, 30 μM ATP, one hour at room temperature.
Description: Representative compounds were screened using the assay procedure for DYRK1A kinase activity as described below.
Each compound was dissolved in DMSO as a 10 mM stock and used to prepare compound source plates.
This is a non-radioactive assay using fluorescence resonance energy transfer (FRET) between coumarin and fluorescein to detect kinase activity which is represented as a ratio of coumarin emission/fluorescein emission.
The mixture was allowed to incubate with the representative compounds for one hour at room temperature. All reactions were performed in duplicate. Unphosphorylated (“0% Control”) and phosphorylated (“100% control”) forms of Ser/Thr 18 served as control reactions. Additionally, an 11-point dose-response curve of Staurosporine (1 uM top) was run to serve as a positive compound control.
After incubation, Development Reagent A was diluted in Development Buffer then added to the reaction and allowed to further incubate for one hour at room temperature.
Dose-response curves were generated and inhibitory concentration (IC50) values were calculated using non-linear regression curve fit in the Dotmatics' Studies Software (Bishops Stortford, UK).
In assay [4] the test system is Wnt-responsive Sp5-Luc reporter in SW480 colon carcinoma cells. In words: Screening assay for Wnt activity (Sp5-Luc reporter gene assay). The settings on record: Homo sapiens; for EC50: SW480; for inhibition at 10 µM: SW480, read-out: percent inhibition at 10 μM.
Description: The screening assay for Wnt activity is described as follows.
SW480 colon carcinoma cells were transduced with a lentiviral vector expressing luciferase with a human Sp5 promoter consisting of a sequence of eight TCF/LEF binding sites. […] These stably transduced SW480 cells were expanded in cell culture and used for all further screening activities. Each compound was dissolved in DMSO as a 10 mM stock and used to prepare compound source plates. Serial dilution (1:3, 10-point dose-response curves starting from 10 μM) and compound transfer was performed using the ECHO 550 (Labcyte, Sunnyvale, Calif.) into 384-well white solid bottom assay plates (Greiner Bio-One) with appropriate DMSO backfill for a final DMSO concentration of 0.1%. […] Following incubation, 15 μl of BriteLite Plus luminescence reagent (Perkin Elmer) was added to each well of the 384-well assay plates. The plates were placed on an orbital shaker for 2 min and then luminescence was quantified using the Envision (Perkin Elmer) plate reader.
For assay [5], the system named is α-smooth muscle actin (aSMA) positive LL29 cells. In words: Inhibition of the fibrotic process: αSMA staining in TGF-β1 treated LL29 fibroblasts from IPF patients. As to conditions: Homo sapiens, Fibroblast; for EC50: 96 h; for inhibition at 10 µM: read-out: percentage in parentheses after EC50 >10.
Assay [6] deals with GSK3β kinase (Homo sapiens, UniProt P49841). In words: GSK3β kinase activity (Ser/Thr 09 peptide Z-lyte FRET assay). It counts as biochemical. The settings on record: recombinant kinase, 46 μM ATP, one hour at room temperature; read-out: EC50.
Assay [7] concerns SW480 colon carcinoma cells. In words: Cell viability assay (CellTiter-Glo). As to conditions: Homo sapiens; for EC50: SW480, 96 h; for inhibition at 10 µM: SW480, read-out: percent inhibition at 10 μM.
Where [8] appears, read: SH-SY5Y cells, overnight (16-18 h), read-out: pSer396 Tau EC50.

Read-outs that look alike come from different tables or passages of the source.

Sequence of GSK3β kinase (P49841 whole entry): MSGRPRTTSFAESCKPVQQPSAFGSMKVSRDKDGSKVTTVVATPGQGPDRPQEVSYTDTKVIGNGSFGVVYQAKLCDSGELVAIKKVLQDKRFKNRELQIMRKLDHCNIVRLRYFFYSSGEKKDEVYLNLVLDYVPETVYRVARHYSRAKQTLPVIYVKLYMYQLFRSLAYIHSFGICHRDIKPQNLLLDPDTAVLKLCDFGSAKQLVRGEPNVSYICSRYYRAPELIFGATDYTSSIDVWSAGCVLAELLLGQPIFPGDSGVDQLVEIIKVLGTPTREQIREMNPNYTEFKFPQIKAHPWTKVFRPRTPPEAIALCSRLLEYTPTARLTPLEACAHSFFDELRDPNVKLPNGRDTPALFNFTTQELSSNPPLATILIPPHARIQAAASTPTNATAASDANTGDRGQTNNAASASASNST

Consider `COC1CCN(CC(=O)Nc2cc3nc(-c4cn(C)nn4)ccc3cn2)CC1` [Compound 358, 2-(4-Methoxypiperidin-1-yl)-N-(2-(1-methyl-1H-1,2,3-triazol-4-yl)-1,6-naphthyridin-7-yl)acetamide], for which the EC50 in assay [1] (setting [8]) was 1.5 µM; in assay [2], greater than 10 µM; in assay [3], 0.364 µM; in assay [4], 0.189 µM; in assay [5], greater than 10 µM; in assay [6], 0.56 µM. In assay [7], this compound returned an EC50 greater than 10 µM. In addition, the inhibition at 10 µM turned out to be 2% in assay [2], 9.8% in assay [5] and 38% in assay [7].
Regarding `Cc1ncc(-c2ccc3cnc(NC(=O)Cn4ccnc4)cc3n2)o1` [Compound 589, 2-(1H-Imidazol-1-yl)-N-(2-(2-methyloxazol-5-yl)-1,6-naphthyridin-7-yl) acetamide], the half-maximal effective concentration (EC50) in assay [1] (setting [8]) was 10 µM; in assay [2], greater than 10 µM; in assay [3], 0.05 µM; in assay [4], greater than 10 µM; in assay [5], greater than 10 µM; in assay [6], 0.156 µM. This compound yielded an EC50 in assay [7] greater than 10 µM. For the same compound, the inhibition at 10 µM in assay [2] is 5.9%; in assay [4], 7.8%; in assay [5], 41.6%; in assay [7], 22.9%.
Take `C[C@H]1CCCN1CC(=O)Nc1ncc2ccc(-c3cnn(C)c3)cc2n1` [Compound 954, (S)—N-(7-(1-Methyl-1H-pyrazol-4-yl)quinazolin-2-yl)-2-(2-methylpyrrolidin-1-yl)acetamide]: the EC50 was 1.7 µM in assay [1] (setting [8]); greater than 10 µM in assay [2]; 0.069 µM in assay [3]; greater than 10 µM in assay [4]; 2.14 µM in assay [5]; 0.195 µM in assay [6]. Further, the EC50 in assay [7] was greater than 10 µM. The inhibition at 10 µM in assay [2] was 5.7%; in assay [4], 29.6%; in assay [7] it was 45.1%.
Consider `COC1CCN(CC(=O)Nc2ncc3ccc(-c4cn(C)nn4)cc3n2)CC1` [Compound 1264, 2-(4-Methoxypiperidin-1-yl)-N-(7-(1-methyl-1H-1,2,3-triazol-4-yl)quinazolin-2-yl)acetamide], for which the EC50 in assay [1] (setting [8]) is 0.902 µM; in assay [2], greater than 10 µM; in assay [3], 0.043 µM; in assay [4], 9.71 µM; in assay [5], greater than 10 µM; in assay [6] it was 0.017 µM. Further, the EC50 in assay [7] is greater than 10 µM. Also, the inhibition at 10 µM in assay [2] worked out at 7.9%; in assay [5] it was 5.7%; in assay [7] it was 27.8%.
As to `CC(C)OCCC(=O)Nc1ncc2ccc(-c3cncn3C)cc2n1` [Compound 1322, 3-Isopropoxy-N-(7-(1-methyl-1H-imidazol-5-yl)quinazolin-2-yl)propanamide], the EC50 in assay [1] (setting [8]) is 0.168 µM; in assay [2], greater than 10 µM; in assay [3] it was 0.052 µM; in assay [4] it was 1.17 µM; in assay [5] it was 2 µM; in assay [6], 0.094 µM. The EC50 in assay [7] is greater than 10 µM. For the same compound, the inhibition at 10 µM in assay [2] came out at 5.9%; in assay [7], 22.2%.
With `O=C(Nc1ncc2ccc(-c3cncc(NCC4(F)CNC4)n3)cc2n1)C1CC1` [Compound 1777, N-(7-(6-(((3-Fluoroazetidin-3-yl)methyl)amino)pyrazin-2-yl)quinazolin-2-yl)cyclopropanecarboxamide], the EC50 is 10 µM in assay [1] (setting [8]); greater than 10 µM in assay [2]; 0.005 µM in assay [3]; greater than 10 µM in assay [4]; greater than 10 µM in assay [5]; 0.098 µM in assay [6]. The compound further registered an EC50 in assay [7] greater than 10 µM. The inhibition at 10 µM is 2.4% in assay [2], 35.4% in assay [4], 41.1% in assay [5] and 27.6% in assay [7].
With `COc1ccc2c(c1)[nH]c1c(C)nccc12` [Harmine, reference compound], the EC50 in assay [1] (SH-SY5Y, read-out: EC50 in the Tau assay) was greater than 10 µM.
